Results published in DBAASP.
Values after ≈ are worked out from the molar mass of the structure shown. One block for each compound: values may come before it.

How the values were obtained:
Test in all cases: ≥ marks a high value that may be exact or a test limit, other limits are often not marked, values filed in µg/mL are converted to µM
[1] = system: Salmonella enterica subsp. enterica serovar Typhimurium ATCC 14028
Pseudomonas putida = system: Pseudomonas putida
Escherichia coli = system: Escherichia coli
[2] = system: Micrococcus luteus ATCC 4698
[3] = system: Staphylococcus epidermidis ATCC 12228
[4] = system: Bacillus subtilis KCTC 1021
[5] = system: Klebsiella pneumoniae ATCC 10031
Serratia marcescens = system: Serratia marcescens
[6] = system: Shigella dysenteriae ATCC 9752
Saccharomyces cerevisiae = system: Saccharomyces cerevisiae
Candida albicans = system: Candida albicans
[7] = system: Proteus mirabilis ATCC 25933
[8] = system: Pseudomonas aeruginosa ATCC 9027
[9] = system: Escherichia coli NCTC 10418
[10] = system: Enterococcus faecalis NCTC 12697
[11] = system: Staphylococcus aureus NCTC 10788
[12] = system: Candida albicans NCTC 1467
[13] = system: Staphylococcus aureus ATCC 12493
[14] = system: Pseudomonas aeruginosa ATCC 27853
[15] = system: Klebsiella aerogenes ATCC 35029
[16] = system: Enterobacter cloacae ATCC 49141
[17] = system: Escherichia coli ATCC 25922
[18] = system: Streptococcus pyogenes ATCC 49399
[19] = system: Staphylococcus aureus ATCC 6538P
[20] = system: Enterococcus faecalis ATCC 19433
Bacillus megaterium Bm11 = system: Bacillus megaterium Bm11
[21] = system: Klebsiella pneumoniae KpC+001825971
[22] = system: Escherichia coli ATCC 35218
[23] = system: Serratia marcescens ATCC 13880
[24] = system: Klebsiella pneumoniae ATCC 700603
[25] = system: Klebsiella oxytoca ATCC 13182
[26] = system: Staphylococcus aureus ATCC 80958

MIC [1]: 77.8 µM (≈ 200 µg/mL)
MIC (Pseudomonas putida): 19.4 µM (≈ 50 µg/mL)
MIC (Escherichia coli): 19.4 µM (≈ 50 µg/mL)
MIC [2]: 0.972 µM (≈ 2.5 µg/mL)
MIC [3]: 3.89 µM (≈ 9.99 µg/mL)
MIC [4]: 3.89 µM (≈ 9.99 µg/mL)
MIC [5]: 19.4 µM (≈ 50 µg/mL)
MIC (Serratia marcescens): ≥ 77.8 µM
MIC [6]: 19.4 µM (≈ 50 µg/mL)
MIC (Saccharomyces cerevisiae): 19.4 µM (≈ 50 µg/mL)
MIC (Candida albicans): 19.4 µM (≈ 50 µg/mL)
MIC [7]: ≥ 77.8 µM
MIC [8]: 38.9 µM (≈ 99.9 µg/mL)
SMILES: CC[C@H](C)[C@@H]1NC(=O)[C@H](C)NC(=O)[C@@H](NC(=O)[C@H](Cc2ccccc2)NC(=O)[C@@H](NC(=O)[C@H](CO)NC(=O)[C@@H]2CCCN2C(=O)[C@H](CC(C)C)NC(=O)[C@@H](NC(=O)[C@H](CCCCN)NC(=O)[C@H](CO)NC(=O)[C@H](C)NC(=O)[C@@H](NC(=O)[C@H](CCCCN)NC(=O)[C@H](Cc2ccccc2)NC(=O)[C@H](CC(C)C)NC(=O)[C@H](C)NC(=O)CNC(=O)[C@H](CC(C)C)NC(=O)[C@@H](N)Cc2ccccc2)C(C)C)C(C)C)C(C)C)CSSC[C@@H](C(=O)O)NC(=O)[C@H](CCCCN)NC(=O)[C@H](CCCCN)NC(=O)[C@H]([C@@H](C)O)NC1=O [FLGALFKVASKVLPSVFCAITKKC]

MIC [9]: ≥ 512 µM
MIC [10]: ≥ 512 µM
MIC [11]: ≥ 512 µM
MIC [12]: ≥ 512 µM
MIC [13]: ≥ 512 µM
MIC [14]: > 512 µM
SMILES: CC[C@H](C)[C@H](NC(=O)CN)C(=O)N[C@@H](CCSC)C(=O)N[C@@H](CC(=O)O)C(=O)N[C@H](C(=O)N[C@H](C(=O)N[C@@H](CCCCN)C(=O)N[C@@H](CC(N)=O)C(=O)N[C@@H](C)C(=O)N[C@@H](C)C(=O)N[C@@H](CCCCN)C(=O)N[C@@H](CC(N)=O)C(=O)N[C@@H](CC(C)C)C(=O)N[C@@H](C)C(=O)NCC(=O)N[C@@H](CCC(N)=O)C(=O)N[C@@H](CC(C)C)C(=O)N[C@@H](CC(C)C)C(=O)N[C@@H](CC(=O)O)C(=O)N[C@@H](CCCCN)C(=O)N[C@@H](CC(C)C)C(=O)N[C@@H](CCCCN)C(=O)N[C@H]1CSSC[C@@H](C(=O)O)NC(=O)[C@H](C)NC(=O)[C@H]([C@@H](C)O)NC(=O)[C@H]([C@@H](C)CC)NC(=O)[C@H](CO)NC1=O)C(C)C)[C@@H](C)O [GIMDTVKNAAKNLAGQLLDKLKCSITAC]

MIC [15]: ≥ 80 µM
MIC [16]: ≥ 80 µM
MIC [17]: 3.54 µM (≈ 4.59 µg/mL)
MIC [18]: 2.5 µM (≈ 3.25 µg/mL)
MIC [19]: ≥ 80 µM
MIC [14]: 20 µM (≈ 26 µg/mL)
MIC [20]: ≥ 80 µM
MIC (Bacillus megaterium Bm11): 2.5 µM (≈ 3.25 µg/mL)
SMILES: CC[C@H](C)[C@H](NC(=O)[C@H](CCCN=C(N)N)NC(=O)[C@@H](NC(=O)[C@H](CCCN=C(N)N)NC(=O)[C@H](Cc1c[nH]c2ccccc12)NC(=O)[C@H](CCCN=C(N)N)NC(=O)[C@H](Cc1ccccc1)NC(=O)[C@H](CCCN=C(N)N)NC(=O)[C@@H]1CCCN1)[C@@H](C)CC)C(N)=O [PRFRWRIRI]

MIC [21]: 25.6 µM (≈ 64.1 µg/mL)
MIC [22]: 7.35 µM (≈ 18.4 µg/mL)
MIC [23]: 1.84 µM (≈ 4.6 µg/mL)
MIC [24]: 3.67 µM (≈ 9.18 µg/mL)
MIC [25]: 1.84 µM (≈ 4.6 µg/mL)
MIC [26]: 7.35 µM (≈ 18.4 µg/mL)
SMILES: CC(C)C[C@H](NC(=O)[C@H](Cc1ccc(O)cc1)NC(=O)[C@H](C)NC(=O)[C@H](CCCN=C(N)N)NC(=O)[C@H](Cc1ccccc1)NC(=O)[C@H](Cc1ccc(O)cc1)NC(=O)[C@H](CCCCN)NC(=O)[C@@H](NC(=O)[C@H](Cc1c[nH]c2ccccc12)NC(=O)[C@H](CCCN=C(N)N)NC(=O)[C@H](Cc1cnc[nH]1)NC(=O)[C@H](CC(C)C)NC(=O)[C@H](Cc1ccccc1)NC(=O)[C@H](CCCN=C(N)N)NC(=O)[C@@H](NC(=O)[C@H](Cc1ccc(O)cc1)NC(=O)[C@H](CCCCN)NC(=O)[C@@H](N)CCCN=C(N)N)C(C)C)C(C)C)C(=O)O [RKYVRFLHRWVKYFRAYL]
